Experimental data published in patent US6750244B2, “Compounds active at a novel site on receptor-operated calcium channels useful for treatment of neurological disorders and diseases” (NPS Pharmaceuticals, Inc., priority 1993, dated 2004).
Read-outs that look alike come from different tables or passages of the source.

Key:
[1] = system: delayed rectifier potassium channel; assay: Inhibition of delayed rectifier potassium channel in cultured N1E-115 neuroblastoma cells; format: cell-based; conditions: read-out: Delayed rectifier potassium channel: estimated IC50
[2] = system: acetic acid-induced writhing; format: in vivo, mice; conditions: 10 mg/kg i.p.
[3] = system: behavior; assay: Behavioral effects in conscious beagle dogs
[4] = system: behavior; assay: Behavioral effects in conscious male NMRI mice
[5] = system: seizure threshold; assay: i.v. Metrazol test (seizure threshold) in mice; format: in vivo; conditions: 10 mg/kg i.p.
[6] = biological target: T1, dopamine uptake site (Cavia porcellus, UniProt H0WCX4); assay: Dopamine uptake binding assay: [3H]WIN-35,428 binding to guinea pig striatal membranes
T1 construct: from tissue; host or cells: guinea pig striatal membranes (per the assay title)

[7] = system: T2, L-type calcium channel; assay: Inhibition of KCl depolarization-induced increases in intracellular calcium in cultured rat cerebellar granule cells; format: cell-based; conditions: cultured rat cerebellar granule cells; read-out: L-type calcium channel: estimated IC50, KCl depolarization-induced increases in intracellular calcium
T2 construct: L-type calcium channel: estimated IC50, KCl depolarization-induced increases in intracellular calcium; other: cultured
Description: The ability of arylalkylamines to inhibit dihydropyridine-sensitive Ca^2+ channels was examined in cerebellar granule cells and a rat aortic smooth muscle cell line, A7r5 cells.

[8] = system: NMDA receptor; conditions: rat hippocampal slices
Description: Glutamate-mediated transmission at synapses of Schaffer collateral fibers and CA1 pyramidal cells was measured in slices of rat brain containing the hippocampus. This assay measures electrophysiologically the postsynaptic depolarization caused by the presynaptic release of glutamate, and can readily distinguish synaptic transmission mediated by NMDA or AMPA receptors.

[9] = system: PCP-like discriminative stimulus effects; format: in vivo, rats; conditions: i.p., rats
Description: In this assay, rats who have been trained to lever press for food reinforcement must select which of two levers in their cages is correct. The only stimulus they hive for selecting the correct lever is their ability to detect whether they received a PCP or vehicle injection After about two months of training, rats become very good at discriminating PCP from vehicle injections and can then be tested with other drugs to determine if they are discriminated as PCP. When tested in this procedure, other drugs which are known to produce a PCP-like intoxication substitute for PCP. These drugs include various PCP analogs such as ketamine and the noncompetitive NMDA receptor antagonist, MK-801.

[10] = system: induction of LTP; design: species or system rat; conditions: at 100 μM
[11] = biological target: T3, serotonin uptake site (Rattus norvegicus, UniProt P31652); assay: Serotonin uptake binding assay: [3H]citalopram binding to rat forebrain membranes
T3 construct: from tissue; host or cells: rat forebrain membranes (per the assay title)

[12] = system: behavior; assay: Behavioral effects in conscious male Wistar rats
[13] = system: maximal electroshock-induced seizures; assay: Maximal electroshock-induced seizures in rats; format: in vivo; conditions: Rattus norvegicus, po, read-out: ED50, maximal electroshock-induced seizures
[14] = system: maximal electroshock-induced seizures; assay: Maximal electroshock-induced seizures in mice; format: in vivo; conditions: mice
[15] = biological target: NMDA receptor-ionophore complex (site labeled by [3H]MK-801); assay: Inhibition of [3H]MK-801 binding in rat cortical/hippocampal washed membrane preparations; conditions: read-out: IC50 (μM) vs. [3H]MK-801; rat cortical/hippocampal washed membranes
[16] = system: central muscarinic cholinergic receptor; format: binding, rat
[17] = biological target: T4, norepinephrine uptake site (Rattus norvegicus, UniProt Q63380); assay: Norepinephrine uptake binding assay: [3H]desipramine binding to rat cortical membranes
T4 construct: from tissue; host or cells: rat cortical membranes (per the assay title)

[18] = system: mean arterial pressure, heart rate, ECG; assay: Cardiovascular activity in conscious beagle dogs
[19] = system: sound-induced seizures; assay: Sound-induced seizures in Frings mice (reflex epilepsy); format: in vivo; conditions: Mus musculus, Frings mice
[20] = system: thermal nociception; format: in vivo, rats; conditions: 25 mg/kg i.p.
Description: In these experiments, a 52° C. hot plate was used as the nociceptive stimulus.

[21] = system: motor performance; assay: Acute motor impairment (rotorod) in mice; conditions: for TD50 (motor impairment): Frings mice
Description: (§1) In this assay, Frings and CF1 mice were injected with test compound and placed on a knurled rod which rotated at a speed of 6 rpm. The ability of the mice to maintain equilibrium for long periods of time was determined; those mice that were unable to maintain equilibrium on the rotorod for 1 min in each of 3 trials were considered impaired.

[22] = in vivo; conditions: mouse, in vivo
Description: as §1

[23] = system: mean arterial blood pressure
[24] = system: temporary focal ischemia; assay: Temporary focal cerebral ischemia (middle cerebral artery occlusion, suture withdrawn after 2 hr); format: in vivo, rat; conditions: two doses of 1 mg/kg i.p.
Description: In a fourth model of focal cerebral ischemia in the rat, the middle cerebral artery was temporarily occluded by passing a small piece of suture thread through the carotid artery to the region of the middle cerebral artery. The suture thread was withdrawn after an ischemic period of 2 hr. Core body temperature was maintained at 37° C. […]

[25] = system: thermal nociception; format: in vivo, rats; conditions: 25 mg/kg i.p.; remark: listed apart in the source
Description: In this standard assay, the thermal nociceptive stimulus was 52° C. warm water with the latency to tail flick or withdrawal taken as the endpoint.

[26] = system: permanent focal ischemia; assay: Permanent focal cerebral ischemia (middle cerebral artery occlusion, suture); format: in vivo, rat; conditions: 1 mg/kg i.p. at 30 min and again 4 hr post-occlusion
Description: In the second study of focal cerebral ischemia in the rat, the middle cerebral artery was permanently occluded by passing a small piece of suture thread through the carotid artery to the region of the middle cerebral artery. Core body temperature was maintained at 37° C. Compound 4, 10 mg/kg i.p. administered immediately after the onset of the ischemic event, produced a statistically significant reduction in the volume of the brain infarct (20%) recorded 24 hr later.

[27] = system: formalin-induced flinching; format: in vivo, Sprague-Dawley rats; conditions: 10 mg/kg i.p.
[28] = system: focal ischemia; assay: Photothrombotic (Rose Bengal) model of focal cerebral ischemia; format: in vivo, rat; conditions: 10 mg/kg i.p. at 15 min, 3 hr, and again 6 hr post-occlusion
Description: In a third model of focal cerebral ischemia in the rat, an ischemic infarct was produced by a photothrombotic method using the dye Rose Bengal.

[29] = Motor toxicity (TD50) in rats; conditions: rat, in vivo, po
[30] = system: NMDA receptor; assay: Inhibition of NMDA/glycine-induced increases in intracellular calcium in cultured rat cerebellar granule cells (RCGC); format: cell-based; conditions: NMDA/glycine-induced increases in intracellular calcium, cultured rat cerebellar granule cells; read-out: IC50 (μM) vs. NMDA
[31] = system: focal ischemic stroke; assay: Rat model of focal ischemic stroke (vessel occlusion); format: in vivo, rats; conditions: i.p. 2 mg/kg 30 min prior to vessel occlusion and 2 mg/kg 3 hr post-occlusion
[32] = 3 mg/kg i.v. (60 sec bolus injection)
[33] = 10 mg/kg i.v. (60 sec bolus injection)

T1 sequence (H0WCX4 1-619): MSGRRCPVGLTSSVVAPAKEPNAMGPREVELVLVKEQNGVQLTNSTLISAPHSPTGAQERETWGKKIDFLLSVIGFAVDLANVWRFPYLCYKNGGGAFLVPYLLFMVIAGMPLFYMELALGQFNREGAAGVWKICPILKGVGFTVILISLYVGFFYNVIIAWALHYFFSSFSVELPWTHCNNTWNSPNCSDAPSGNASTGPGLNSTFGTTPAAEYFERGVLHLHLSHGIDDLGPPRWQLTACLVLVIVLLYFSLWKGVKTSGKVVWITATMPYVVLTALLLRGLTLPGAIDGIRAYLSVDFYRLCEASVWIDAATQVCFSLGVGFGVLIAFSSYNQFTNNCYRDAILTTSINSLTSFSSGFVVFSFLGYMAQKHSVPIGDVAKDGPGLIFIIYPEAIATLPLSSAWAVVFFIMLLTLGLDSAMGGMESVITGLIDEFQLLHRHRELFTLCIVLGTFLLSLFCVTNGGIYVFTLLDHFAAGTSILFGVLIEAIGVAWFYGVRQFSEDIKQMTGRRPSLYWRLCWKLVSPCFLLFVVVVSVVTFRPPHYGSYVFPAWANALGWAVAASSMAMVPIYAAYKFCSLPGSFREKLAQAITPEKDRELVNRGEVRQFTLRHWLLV
T3 sequence (P31652 whole entry): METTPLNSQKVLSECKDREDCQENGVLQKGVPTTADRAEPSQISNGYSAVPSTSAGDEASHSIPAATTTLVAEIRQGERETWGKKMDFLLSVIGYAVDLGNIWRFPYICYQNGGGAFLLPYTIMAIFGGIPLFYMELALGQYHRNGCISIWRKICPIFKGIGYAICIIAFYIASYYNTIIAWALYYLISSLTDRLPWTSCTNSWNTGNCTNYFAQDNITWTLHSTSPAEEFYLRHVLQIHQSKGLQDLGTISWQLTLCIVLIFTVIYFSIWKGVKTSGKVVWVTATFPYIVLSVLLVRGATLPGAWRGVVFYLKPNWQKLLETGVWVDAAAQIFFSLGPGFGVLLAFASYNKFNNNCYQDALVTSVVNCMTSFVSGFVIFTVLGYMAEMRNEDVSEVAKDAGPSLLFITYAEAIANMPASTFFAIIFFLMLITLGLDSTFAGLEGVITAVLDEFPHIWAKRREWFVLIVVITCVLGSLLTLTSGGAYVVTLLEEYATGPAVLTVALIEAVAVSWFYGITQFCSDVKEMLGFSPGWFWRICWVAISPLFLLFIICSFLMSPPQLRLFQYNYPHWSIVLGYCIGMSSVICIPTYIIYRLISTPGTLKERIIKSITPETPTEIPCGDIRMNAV
T4 sequence (Q63380 1-617): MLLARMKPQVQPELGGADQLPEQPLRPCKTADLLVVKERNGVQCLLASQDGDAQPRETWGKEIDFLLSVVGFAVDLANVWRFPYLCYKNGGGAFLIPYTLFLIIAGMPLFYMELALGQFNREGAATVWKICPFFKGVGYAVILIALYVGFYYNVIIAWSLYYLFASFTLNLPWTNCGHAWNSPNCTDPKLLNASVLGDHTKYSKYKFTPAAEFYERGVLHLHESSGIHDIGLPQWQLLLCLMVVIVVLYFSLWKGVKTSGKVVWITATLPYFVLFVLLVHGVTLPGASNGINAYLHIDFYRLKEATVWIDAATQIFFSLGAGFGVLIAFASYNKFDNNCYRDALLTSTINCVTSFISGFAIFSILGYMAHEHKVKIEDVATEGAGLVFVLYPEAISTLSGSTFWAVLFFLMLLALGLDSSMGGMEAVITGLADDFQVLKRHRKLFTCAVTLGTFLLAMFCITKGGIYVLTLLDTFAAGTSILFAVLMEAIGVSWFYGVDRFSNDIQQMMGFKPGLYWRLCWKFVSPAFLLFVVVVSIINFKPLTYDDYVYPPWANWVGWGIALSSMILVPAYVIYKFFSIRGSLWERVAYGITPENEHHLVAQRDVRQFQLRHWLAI

NCCC(c1cccc(F)c1)c1cccc(F)c1 [Compound 20, 3,3-bis(3-fluorophenyl)-1-propylamine]
IC50 [1]: 1000 to 10000 nM | analgesic activity against acetic acid-induced abdominal writhing [2]: significant analgesic activity, not blocked by naloxone | behavioral effects [3, 32]: increased motor activity, agitation and anxiousness, slight tremors, licking of the mouth, whining, and urination | behavioral effects [3, 33]: dilated pupils, whole body tremors, incoordination, licking of the mouth, salivation, panting, rapid blinking of the eyes, whining, anxiousness, seizures, and death | behavioral effects ([4]; 8 mg/kg i.p.): excitation and increased reactivity to touch | behavioral effects ([4]; 64 mg/kg i.p.): convulsions and death | behavioral effects ([4]; 2 and 4 mg/kg i.p.): no behavioral effects | behavioral effects ([4]; 16 and 32 mg/kg i.p.): excitation, Straub tail, tremor, stereotypies, hypothermia, and mydriasis | behavioral effects ([4]; 128 and 256 mg/kg i.p.): convulsions and death | seizure threshold, i.v. Metrazol test [5]: an increase in seizure threshold | Monoamine uptake binding assays: dopamine uptake binding assay, percent block ([6]; at 0.1 μM): 6% at | Monoamine uptake binding assays: dopamine uptake binding assay, percent block ([6]; at 10 μM): 0.1^f81% at | IC50 [7]: 2200 nM | Suppression of NMDA Receptor-Mediated Synaptic Transmission (concentration which suppresses) [8]: 30 to 300 µM | no generalization to PCP at doses up to the behaviorally active dose of [9]: ≤ 10 mg/kg | LTP Assay (block of the induction of LTP) [10]: block at 100 | Monoamine uptake binding assays: serotonin uptake binding assay, percent block ([11]; at 0.1 μM): 10^g28% at | Monoamine uptake binding assays: serotonin uptake binding assay, percent block ([11]; at 10 μM): 0.1^h94% at | behavioral effects ([12]; 2 mg/kg i.v.): no behavioral effects | behavioral effects ([12]; 32 mg/kg i.v.): Straub tail, convulsions, and death | behavioral effects ([12]; doses ranging from 4 to 16 mg/kg i.v.): excitation, stereotypies, increased reactivity to touch, increased muscle tone, and tremor | ED50 [13]: 33.6 mg/kg | ED50 ([14]; Mus musculus, ip): 20.1 mg/kg | no significant anticonvulsant activity against maximal electroshock-induced seizures at doses up to ([14]; oral (p.o.)): up to 30 mg/kg | IC50 [15]: 0.252 µM | Central muscarinic cholinergic receptor: percent block of [3H]QNB binding ([16]; at 0.1 μM): 8% at | Central muscarinic cholinergic receptor: percent block of [3H]QNB binding ([16]; at 10 μM): 0.190% at | Monoamine uptake binding assays: norepinephrine uptake binding assay, percent block ([17]; at 0.1 μM): 5% at | Monoamine uptake binding assays: norepinephrine uptake binding assay, percent block ([17]; at 10 μM): 0.1^g58% at | cardiovascular activity ([18]; 0.3 mg/kg i.v. (60 sec bolus injection)): no significant cardiovascular activity | cardiovascular activity ([18]; 1 mg/kg i.v. (60 sec bolus injection)): no significant cardiovascular activity | heart rate [18, 32]: transient increases in mean arterial pressure and heart rate | mean arterial pressure [18, 32]: transient increases in mean arterial pressure and heart rate | heart rate [18, 33]: larger magnitude and longer duration effects | mean arterial pressure [18, 33]: larger magnitude and longer duration effects | ED50 ([19]; ip): 2.1 mg/kg | ED50 ([19]; oral): 9.7 mg/kg | analgesic activity, rat 52° C. hot plate test [20]: no significant analgesic activity | TD50 (motor impairment) ([21]; i.p.): 19.9 mg/kg | TD50 (motor impairment) ([21]; oral): 21.8 mg/kg | motor impairment ([21]; mice, 30 mg/kg p.o.): motor impairment | TD50 ([22]; ip): 20.6 mg/kg | no significant cardiovascular activity in anesthetized rats at doses up to ([23]; i.p.): ≤ 10 mg/kg | reduction in the infarct volume ([24]; 2 hr after occlusion (time of reperfusion) and 6 hr later): 43% | reduction in the infarct volume ([24]; immediately after middle cerebral artery occlusion and 6 hr later): 51% | analgesic activity, rat 48° C. tail flick test [25]: no significant analgesic activity | reduction in the infarct volume [26]: 24% | analgesic activity, rat formalin test [27]: significant analgesic activity, not blocked by the opiate receptor antagonist naloxone | reduction in the infarct volume [28]: 50% | TD50 [29]: 55.9 mg/kg | IC50 [30]: 0.07 µM

C[C@H](N)CC(c1cccc(F)c1)c1cccc(F)c1 [Compound 50, 3,3-bis(3-fluorophenyl)-1-methyl-1-propylamine]
Monoamine uptake binding assays: dopamine uptake binding assay, percent block ([6]; at 0.1 μM): 17% at | Monoamine uptake binding assays: dopamine uptake binding assay, percent block ([6]; at 10 μM): 0.1^f93% at | Monoamine uptake binding assays: serotonin uptake binding assay, percent block ([11]; at 0.1 μM): 10^g75% at | Monoamine uptake binding assays: serotonin uptake binding assay, percent block ([11]; at 10 μM): 0.1^h97% at | neuroprotectant activity in a rat model of focal ischemic stroke [31]: significant neuroprotectant activity | ED50 [13]: 28 mg/kg | IC50 [15]: 0.762 µM | Central muscarinic cholinergic receptor: percent block of [3H]QNB binding ([16]; at 0.1 μM): 11% at | Central muscarinic cholinergic receptor: percent block of [3H]QNB binding ([16]; at 10 μM): 0.184% at | Monoamine uptake binding assays: norepinephrine uptake binding assay, percent block ([17]; at 0.1 μM): 10% at | Monoamine uptake binding assays: norepinephrine uptake binding assay, percent block ([17]; at 10 μM): 0.1^g78% at | ED50 ([19]; ip): 2.7 mg/kg | ED50 ([19]; oral): 9 mg/kg | analgesic activity, rat 52° C. hot plate test [20]: no significant analgesic activity | TD50 (motor impairment) ([21]; i.p.): 17.4 mg/kg | TD50 ([22]; Frings, po): 18.9 mg/kg | no significant cardiovascular activity in anesthetized rats at doses up to ([23]; i.v.): up to 5 mg/kg | analgesic activity, rat 48° C. tail flick test [25]: no significant analgesic activity | TD50 [29]: 20 mg/kg | IC50 [30]: 0.089 µM
